Laboratory results from ChEMBL document CHEMBL1201862, “PubChem BioAssay data set” (2004).
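Interpolation was linear, between the two tested concentrations surrounding the appropriate level; five concentrations were tested over 48 hours in 96-well plates. GI50: concentration for 50% inhibition of growth.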 Calls of active or inactive are those of the source. No stated cut-off is given here; in the data, active = GI50 up to about 1.1 µM and inactive = higher. Where a SMILES comes first, the peptide text is derived from it. The star is where a group is joined. Cbz = O=C(OCc1ccccc1)*

Experiments:
Experiment in all cases: NCI anticancer screen, dose series, 48 h
NCI-H460 = system: NCI-H460
SK-MEL-28 = system: SK-MEL-28
786-0 = system: 786-0
IGROV-1 = system: IGROV-1
K562 = system: K562
HCT-116 = system: HCT-116
MOLT-4 = system: MOLT-4
CCRF-CEM = system: CCRF-CEM
SK-MEL-5 = system: SK-MEL-5
HT-29 = system: HT-29
NCI-H226 = system: NCI-H226
TK-10 = system: TK-10
Malme-3M = system: Malme-3M
U-251 = system: U-251
A498 = system: A498
T47D = system: T47D
MDA-MB-435 = system: MDA-MB-435
MDA-MB-231 = system: MDA-MB-231
NCI/ADR-RES = system: NCI/ADR-RES

Measured: GI50

CCCCCCCCCCC(O)CCCCCCC(=O)O (centres undefined)
inactive: NCI-H460 16.3 µM | SK-MEL-28 45.8 µM | 786-0 24.5 µM | IGROV-1 18.2 µM | K562 13.2 µM | HCT-116 17.2 µM | MOLT-4 12.7 µM | CCRF-CEM 27.5 µM | SK-MEL-5 16 µM | HT-29 19.9 µM | NCI-H226 52 µM | TK-10 65.9 µM | Malme-3M 26.2 µM | U-251 14.9 µM | A498 23.2 µM

CC1CC(=O)Nc2cc(Cl)ccc2N1C(=O)C1CC1 (centres undefined)
inactive: NCI-H460 > 100 µM | SK-MEL-28 > 100 µM | 786-0 > 100 µM | IGROV-1 > 100 µM | K562 > 100 µM | HCT-116 > 100 µM | MOLT-4 > 100 µM | CCRF-CEM > 100 µM | SK-MEL-5 > 100 µM | HT-29 > 100 µM | NCI-H226 > 100 µM | TK-10 > 100 µM | Malme-3M > 100 µM | T47D > 100 µM | U-251 > 100 µM | A498 > 100 µM | MDA-MB-435 > 100 µM | MDA-MB-231 > 100 µM

S=C(/N=c1\sc(Nc2ccc(Cl)cc2)nc2sc3c(c12)CCN(N1CCc2c(sc4nc(Nc5ccc(Cl)cc5)s/c(=N\C(=S)Nc5ccc(Cl)cc5)c24)C1)C3)Nc1ccc(Cl)cc1
inactive: NCI-H460 33.8 µM | SK-MEL-28 38.2 µM | 786-0 18 µM | IGROV-1 35.7 µM | HCT-116 17.9 µM | MOLT-4 67 µM | HT-29 19 µM | NCI/ADR-RES 48 µM | NCI-H226 78.2 µM | TK-10 44.6 µM | Malme-3M > 100 µM | U-251 25.1 µM | MDA-MB-231 18.6 µM

Cc1ccc2nc3c(=O)[nH]c(=O)nc-3n(C)c2c1C
inactive: NCI-H460 > 100 µM | SK-MEL-28 > 100 µM | 786-0 > 100 µM | IGROV-1 > 100 µM | K562 > 100 µM | HCT-116 > 100 µM | MOLT-4 > 100 µM | CCRF-CEM > 100 µM | SK-MEL-5 > 100 µM | HT-29 > 100 µM | NCI/ADR-RES > 100 µM | NCI-H226 > 100 µM | TK-10 > 100 µM | Malme-3M > 100 µM | T47D > 100 µM | U-251 > 100 µM | MDA-MB-435 > 100 µM | MDA-MB-231 > 100 µM

CC(C)(O)C1CC[C@]2(C)CC[C@]3(C)[C@H](CC[C@@H]4[C@@]5(C)CC[C@H](O)C(C)(C)[C@@H]5CC[C@]43C)[C@@H]12 (some centres undefined)
inactive: NCI-H460 34.8 µM | SK-MEL-28 29.2 µM | 786-0 25.2 µM | IGROV-1 33.3 µM | K562 82.6 µM | HCT-116 21 µM | MOLT-4 73.1 µM | CCRF-CEM 74.1 µM | SK-MEL-5 26 µM | HT-29 35.8 µM | NCI/ADR-RES 29.4 µM | NCI-H226 44.4 µM | TK-10 27.5 µM | Malme-3M 28.6 µM | T47D 23.1 µM | U-251 35.6 µM | MDA-MB-435 34.1 µM | MDA-MB-231 > 100 µM

C[n+]1c(-c2ccc(/C=N/Nc3ccnc(N/N=C/c4ccc(-c5cn6ccccc6[n+]5C)cc4)n3)cc2)cn2ccccc21
inactive: NCI-H460 31.3 µM | SK-MEL-28 34.7 µM | 786-0 47.2 µM | IGROV-1 39.3 µM | HCT-116 20.7 µM | MOLT-4 > 100 µM | SK-MEL-5 56.4 µM | HT-29 24.7 µM | NCI/ADR-RES 31.9 µM | TK-10 41.8 µM | T47D 54.8 µM | MDA-MB-435 > 10 µM | MDA-MB-231 > 100 µM

O=C(NC1=C(Cl)C(=O)c2ccccc2C1=O)c1ccccc1
inactive: NCI-H460 40.3 µM | SK-MEL-28 44.8 µM | 786-0 45.4 µM | IGROV-1 21.8 µM | K562 21.8 µM | HCT-116 17.3 µM | MOLT-4 20.1 µM | CCRF-CEM 30.9 µM | SK-MEL-5 27.5 µM | HT-29 29.3 µM | NCI/ADR-RES 18.5 µM | NCI-H226 24.5 µM | TK-10 23 µM | Malme-3M 16.9 µM | T47D 22.1 µM | U-251 27.8 µM | MDA-MB-435 18.9 µM | MDA-MB-231 32.9 µM

CCOC(=O)C(CC(=O)OC)NC(=O)C(CC(=O)OC)NC(=O)C(CC(=O)OC)NC(=O)C(CC(=O)OC)NC(=O)OCc1ccccc1 (centres undefined) (Cbz-D(OMe)D(OMe)D(OMe)D(OMe)-OEt; configuration not given here)
inactive: NCI-H460 > 100 µM | SK-MEL-28 > 100 µM | 786-0 > 100 µM | IGROV-1 > 100 µM | K562 > 100 µM | HCT-116 > 100 µM | MOLT-4 > 100 µM | SK-MEL-5 > 100 µM | HT-29 > 100 µM | NCI-H226 > 100 µM | TK-10 > 100 µM | Malme-3M > 100 µM | T47D > 100 µM | U-251 > 100 µM | A498 > 100 µM | MDA-MB-231 > 100 µM
